Like-named read-outs stand apart in the source and are kept apart here.
What was measured:
[1] = Plasma stability assay, rat plasma; assay type: in vitro ADME
[2] = Microsomal stability, human liver microsomes; assay type: in vitro ADME; settings: pooled liver microsomes, pH 7.4, read-out: Microsomal stability CLint, hum
Experimental: (§1) . Zero time points were prepared by adding ice-cold methanol to a mixture of the compound with cofactors prior to the addition of microsomes. […]. Intrinsic clearance (CLint) was calculated using the following formula: [drawing 1] where V = incubation volume per milligram of microsomal protein (μL/mg) and t1/2 = microsomal half-life.

[3] = Plasma stability assay, human plasma; assay type: in vitro ADME; settings: pooled plasma, read-out: Plasma stability % remaining at 6 h, hum
Experimental: […] The reactions were terminated by adding 4 vol of ice-cold methanol, and the samples were then mixed vigorously, frozen at −20 °C for 1 h, and left overnight at 8 °C. After that, the samples were centrifuged, and the supernatant was analyzed by means of LC–MS/MS Sciex 6500 triple quadrupole (Sciex, Framingham, MA, USA). Zero time points were prepared by adding ice-cold methanol to the compound prior to the addition of the plasma.

in vitro [4] = assay type: in vitro ADME; settings: human, Caco-2
Experimental: A Transwell system consisting of two compartments separated by a monolayer of differentiated Caco-2 cells was employed for the intestinal permeability evaluation. Thanks to the ability of Caco-2 cells to become polarized, bidirectional transport (A–B and B–A) could be measured and the efflux ratio calculated.
The transepithelial bidirectional transport of tested compounds (5 μM, pH 7.4/7.4) across the Caco-2 monolayers was studied using the BD BioCoat HTS Caco-2 assay system (BD Biosciences, Bedford, MA) as described in detail elsewhere.[47] Aliquots were collected from the donor and acceptor compartment at the end of the transport period (3 h), the integrity of monolayers was verified using Lucifer Yellow dye, and the compounds were quantified using LC–MS/MS (Triple Quad 6500+, Sciex). The apparent permeability coefficient (Papp) was calculated from the following equation: Papp = (dQ/dt)/C0 × A, where dQ/dt is the rate of absorption of the drug across the cells, C0 is the donor compartment concentration at time zero, and A is the area of the monolayer. The efflux ratio was expressed as (Papp B–A)/(Papp A–B). Recovery (%) was determined as (total compound mass in donor and receiver compartments at the end of the incubation/initial compound mass in the donor compartment) × 100.

D3 receptor = settings: cited from earlier work
D2 receptor = settings: cited from earlier work
[5] = Cytotoxicity assay (CellTiter-Glo) on normal human dermal fibroblasts; assay type: cell-based; settings: normal human dermal fibroblasts (NHDF)
Experimental: The cytotoxicity of the compounds was evaluated in nontumor normal human dermal fibroblasts (NHDF) purchased from ATCC (PCS-201-012, Manassas, VA, USA). The cells were negatively tested for the presence of mycoplasma (cat. #: LT07-318 MycoAlert Mycoplasma Detection kit, Lonza). The cells were cultivated in DMEM high glucose 4.5 g/L medium (cat. #: R8758, Merck, Germany). The medium was supplemented with 10% fetal bovine serum (cat. #: F7524, Merck, Germany; inactivated at 56 °C for 30 min) and 1.0% of L-glutamine (cat. #: G7513, Merck, Germany) without antibiotics. Cells were seeded in 384-well format white micro plates (cat. #: 164610, Nunc, Thermo Fisher Scientific, USA) at a concentration of 60,000 cells per mL and left to rest overnight. Next day, 1 and 10 μM concentrations of the tested compounds were added in triplicates. The cells were cultivated at 37 °C and 5% CO2 for 72 h after which a luminescent cell viability assay (CellTiter-Glo 2.0, cat. #: Promega, Madison, USA) was added. The plate was left on a shaker (350 rpm) in the dark for 20 min at RT. Luminescence was measured by a Spark multimode reader from Tecan (Tecan Group Ltd., Switzerland). The signal of the compound-treated cells was related to the value of the untreated control, which was arbitrarily set to 100% viability.

[6] = Microsomal stability, rat liver microsomes; assay type: in vitro ADME; settings: pH 7.4
Experimental: as §1

ADRA1A = target: T1, ADRA1A (Homo sapiens, UniProt P35348); settings: read-out: ADRA1A IC50; antagonist activity, receptor stimulated with EC80 of epinephrine, Chem-1 cells
T1 sequence (P35348 1-466): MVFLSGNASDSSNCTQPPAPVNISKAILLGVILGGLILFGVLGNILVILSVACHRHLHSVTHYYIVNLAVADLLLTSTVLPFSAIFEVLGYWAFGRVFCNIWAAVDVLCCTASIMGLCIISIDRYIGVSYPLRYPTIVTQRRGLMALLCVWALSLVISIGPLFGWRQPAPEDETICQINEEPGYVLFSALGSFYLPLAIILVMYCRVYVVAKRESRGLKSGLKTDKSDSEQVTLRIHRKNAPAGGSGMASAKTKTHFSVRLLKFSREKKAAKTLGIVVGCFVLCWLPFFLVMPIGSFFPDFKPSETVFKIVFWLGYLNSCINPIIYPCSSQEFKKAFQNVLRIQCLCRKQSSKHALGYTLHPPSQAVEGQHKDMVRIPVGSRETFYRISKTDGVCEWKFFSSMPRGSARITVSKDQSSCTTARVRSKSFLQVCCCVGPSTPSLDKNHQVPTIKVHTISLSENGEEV
Experimental: All prepared compounds were tested for their antagonistic activity using calcium flux assays on cells overexpressing the ADRA2A or ADRA1A adrenergic receptor as a primary screen (Table 2).
Chem-1 cells overexpressing ADRA2A or 1A adrenergic receptors were purchased from Merck Millipore (cat. #: HTS096RTA and HTS087RTA; Merck, Germany). The cells were cultured according to the manual. […] After 30 min of incubation with the assay buffer at 37 °C and 5% CO2, the cells were incubated at RT in a dark place for another 15 min. […] All compounds were added by an Agilent Bravo Automated Liquid Handling Platform (Agilent Technologies, USA). […] Before each kinetic measurement, the background fluorescence (F0) was measured, and the result was calculated as (Fmax – F0)/F0.

in vitro [7] = settings: dog, MDCK-MDR1
Experimental: (§2) Canine MDR1 Knockout, Human MDR1 Knockin MDCKII cells (Sigma-Aldrich) were employed to estimate CNS permeability of the compounds. Briefly, the cells were seeded at a density of 30,000 cells per 24-well plate insert of the Transwell sandwich (CellQART, SABEU GmbH&Co.KG, Germany). They were left to differentiate for 5 days with medium exchange every other day. […] The treated cells were then returned to the incubator for 2 h at 37 °C. After that, samples were collected from both apical inserts and basolateral wells and analyzed using LC–MS (Triple Quad 6500+, Sciex). LY permeation was used to check for the integrity of monolayer in each sample. […] Only wells displaying LY permeability <2% were qualified for compound transport quantification. Apparent permeability coefficients (Papp's), efflux ratios, and recoveries for the compounds were calculated as described in Section 4.2.8. The data represent means ± SD of two independent experiments performed in triplicate.

P-gp (human MDR1) = experiment: in vitro; settings: dog, MDCK-MDR1
Experimental: as §2

[8] = human liver microsomes 0.5 mg/mL, 10 μM compound
[9] = 10 uM, read-out: NHDF viability at 10 uM (supplement csv)
[10] = 10 μM, untreated control = 100%, read-out: NHDF Viability 10 μM

Experimental for MDCKII-MDR1 cells: as §2

Row | SMILES | remaining at 6 h, 5 μM [1] [%] | microsomal CLint at 10 µM [2, 8] [µL/min/mg] | remaining at 6 h, 5 μM ([3]; human plasma, 5 μM, 37 °C) [%] | viability at 72 h, 1 µM [5] [%] | viability at 72 h, 10 µM [5, 9] [%] | viability at 72 h, 10 µM [5, 10] [%] | microsomal CLint at 10 µM ([6]; rat liver microsomes) [µL/min/mg] | IC50 (ADRA1A) [nM] | further results
1 | COC(=O)[C@@H]1[C@H]2C[C@H]3c4[nH]c5ccccc5c4CCN3C[C@@H]2CC[C@@H]1O [Compound 1, Yohimbine, reference compound] | 90 ± 2 | 7 ± 1 | 106 | 112 | 105 | 105 | 2 |  | Papp B→A at 3 h, 5 µM (in vitro [4]; 5 μM, pH 7.4/7.4, 3 h, read-out: Caco-2 permeability Papp B–A): 23 ± 8 ×10⁻⁶ cm/s; affinity toward the D3 receptor (D3 receptor): negligible; D2 receptor pKi (D2 receptor): 6.4
2 | CCOC(=O)[C@@H]1[C@H]2C[C@H]3c4[nH]c5ccccc5c4CCN3C[C@@H]2CC[C@@H]1O [Compound 3a, 17-α-Hydroxyyohimban-16-α-carboxylic Acid Ethyl Ester] | 52 | 14 | 109 ± 1 | 111 | 108 | 108 | 3 | 3340 | 
3 | CC(C)OC(=O)[C@@H]1[C@H]2C[C@H]3c4[nH]c5ccccc5c4CCN3C[C@@H]2CC[C@@H]1O [Compound 3b, 17-α-Hydroxyyohimban-16-α-carboxylic Acid Isopropyl Ester] | 89 | 17 ± 1 | 102 | 108 | 102 | 102 | 3 ± 1 | 4160 | 
4 | CC(C)CCOC(=O)[C@@H]1[C@H]2C[C@H]3c4[nH]c5ccccc5c4CCN3C[C@@H]2CC[C@@H]1O [Compound 3c, 17-α-Hydroxyyohimban-16-α-carboxylic Acid (3-Methylbutyl-1-yl) Ester] |  |  |  | 117 | 114 | 114 |  | 2650 | 
5 | O=C(OC1CCCC1)[C@@H]1[C@H]2C[C@H]3c4[nH]c5ccccc5c4CCN3C[C@@H]2CC[C@@H]1O [Compound 3d, 17-α-Hydroxyyohimban-16-α-carboxylic Acid Cyclopentyl Ester] |  |  |  | 113 | 113 | 117 |  | 2640 | 
6 | CC(C)(C)OC(=O)[C@@H]1[C@H]2C[C@H]3c4[nH]c5ccccc5c4CCN3C[C@@H]2CC[C@@H]1O [Compound 3e, 17-α-Hydroxyyohimban-16-α-carboxylic Acid tert-Butyl Ester] |  |  |  | 123 | 117 | 113 |  | 10500 | 
7 | N[C@H]1C[C@H](OC(=O)[C@@H]2[C@H]3C[C@H]4c5[nH]c6ccccc6c5CCN4C[C@@H]3CC[C@@H]2O)C1 [Compound 4n, 17-α-Hydroxyyohimban-16-α-carboxylic Acid trans-3-Aminocyclobutyl Ester] | 84 ± 2 | 2 ± 1 | 99 | 93 | 89 | 89 |  |  | recovery at 3 h, 5 µM (in vitro [4]): 103%; Papp A→B at 3 h, 5 µM (in vitro [4]; 5 μM, pH 7.4/7.4, 3 h, read-out: Caco-2 permeability Papp A–B): 3 ± 1 ×10⁻⁶ cm/s; recovery (B–A) in MDCKII-MDR1 cells (MDCKII-MDR1 cells; B–A direction): 98%; P-gp transporter substrate (MDCKII-MDR1 cells; MDCKII-MDR1 cells): substrate for the P-gp transporter; recovery at 2 h, 10 µM (in vitro [7]): 100%; Papp A→B at 2 h, 10 µM (P-gp (human MDR1)): 0.9 ×10⁻⁶ cm/s; Papp B→A at 2 h, 10 µM (P-gp (human MDR1)): 3.5 ± 1.4 ×10⁻⁶ cm/s
8 | CN1CC[C@H](OC(=O)[C@@H]2[C@H]3C[C@H]4c5[nH]c6ccccc6c5CCN4C[C@@H]3CC[C@@H]2O)C1 [Compound 4p, 17-α-Hydroxyyohimban-16-α-carboxylic Acid (S)-N-Methylpyrrolidin-3-yl Ester] | 85 ± 2 | 10 | 109 ± 2 | 88 | 80 | 80 | 1 ± 1 | 3820 | 
9 | O=C(O[C@H]1CCOC1)[C@@H]1[C@H]2C[C@H]3c4[nH]c5ccccc5c4CCN3C[C@@H]2CC[C@@H]1O [Compound 4q, 17-α-Hydroxyyohimban-16-α-carboxylic Acid (S)-Tetrahydrofuran-3-yl Ester] | 102 ± 1 | 15 ± 1 | 118 |  |  | 112 | 5 ± 1 | 537 | 
10 | O=C(OC1COC1)[C@@H]1[C@H]2C[C@H]3c4[nH]c5ccccc5c4CCN3C[C@@H]2CC[C@@H]1O [Compound 4r, 17-α-Hydroxyyohimban-16-α-carboxylic Acid Oxetan-3-yl Ester] | 89 ± 1 |  |  |  | 102 |  |  | 1940 | microsomal CLint at 10 µM ([2]; human): 16 ± 1 µL/min/mg; remaining at 6 h, 5 μM ([3]; human): 94 ± 14%; microsomal CLint at 10 µM ([6]; rat, liver microsomes): 2 ± 1 µL/min/mg
